Reference: US20150126467A1, “USE OF ALGINATE OLIGOMERS TO ENHANCE THE EFFECTS OF ANTIFUNGAL AGENTS” (AlgiIPharma AS, priority 2011, published 2015)
≈ marks a conversion by molar mass, not a printed value. Read-outs that look alike come from different tables or passages of the source.

How the values were obtained:
[1] = tested on: C. krusei 249/03(2) (ulceration); test: Standard MIC testing in RPMI medium (Example 3); type: cell-based, Candida krusei; conditions: 48 h
Description: (§4) Following retrieval from −80° C. storage, fungal colonies were grown on blood agar with 5% sheep blood and were used to inoculate tryptone soya broth (TSB) for overnight growth. […] Fungal cultures at 0.5 McFarland standard were diluted ten-fold in RPMI medium and 5 μl added to the media containing wells of the microtiter plates. Plates were wrapped in parafilm and incubated at 34° C. for 48 hours. MIC values were determined as the lowest concentration at which there was no visible growth.

[2] = tested on: C. tropicalis 519468 (urinary); test: Standard MIC testing in RPMI medium (Example 3); type: cell-based; conditions: Candida tropicalis, 48 h, read-out: Minimum Inhibitory Concentration (MIC)
Description: (§5) The Minimum Inhibitory Concentration assay used in this Example was based on Jorgensen et al. (Manual of Clinical Microbiology, 7th ed. Washington, D.C: American Society for Microbiology, 1999; 1526-43). Following retrieval from −80° C. storage, fungal colonies were grown on blood agar with 5% sheep blood and were used to inoculate tryptone soya broth (TSB) for overnight growth. […] Fungal cultures at 0.5 McFarland standard were diluted ten-fold in RPMI medium and 5 μl added to the media containing wells of the microtiter plates. Plates were wrapped in parafilm and incubated at 34° C. for 48 hours. MIC values were determined as the lowest concentration at which there was no visible growth.

[3] = tested on: C. krusei 141/03 (candidosis); test: Standard MIC testing in RPMI medium (Example 3); type: cell-based, Candida krusei; conditions: Pichia kudriavzevii, 48 h, read-out: Minimum Inhibitory Concentration (MIC)
Description: as §4

[4] = tested on: C. parapsillosis ATCC 22019T; test: Standard MIC testing in RPMI medium (Example 3); type: cell-based, Candida parapsilosis; conditions: Lodderomyces parapsilosis, ATCC2019, 48 h, C. Parapsillosis ATCC 2019^T, read-out: Minimum Inhibitory Concentration (MIC)
Description: as §4

[5] = tested on: C. tropicalis 250/03 (candidosis); test: Standard MIC testing in RPMI medium (Example 3); type: cell-based; conditions: Candida tropicalis, 48 h, read-out: Minimum Inhibitory Concentration (MIC)
Description: as §5

[6] = tested on: C. tropicalis 12 (vaginal); test: Standard MIC testing in RPMI medium (Example 3); type: cell-based; conditions: Candida tropicalis, 48 h, read-out: Minimum Inhibitory Concentration (MIC)
Description: as §4

[7] = tested on: Candida albicans, CCUG 39343; test: Robotic MIC assay (Example 1); type: cell-based; conditions: for MIC: Candida albicans, CCUG39343, 24 h, 24 hours, read-out: Minimum Inhibitory Concentration (MIC); for reduction in MIC values: comparing 0 and 10% G-block
Description: (§1) A robotic MIC Assay was performed as follows. OligoG CF-5/20 were dissolved in medium (Mueller-Hinton broth or M19 broth depending on experiment) to 1.25 times of the desired assay concentrations (2, 6 and 10%). The antifungal agents under test were dissolved in medium without OligoG CF-5/20 and in medium with OligoG CF-5/20 at a concentration of 1.25 times the highest desired assay concentrations. For experiments where the effect of adding different concentrations of Na^+ was investigated, NaCl was dissolved in medium to the desired concentrations (10, 30 and 50 mM).
(§2) Two-fold serial dilutions of antifungal agents were made in medium with different concentrations of OligoG CF-5/20, and the solutions were placed in four parallel wells in Nunc 384-well micro plates (30 μl per well in Nunc 242757 microplates). A group of 8 wells with no addition of antifungal agents for each OligoG CF-5/20 concentration was included on each microplate as growth reference. To each well in the 384-well assay plates was added 7.5 μl of medium inoculated with a frozen stock culture of Candida albicans (strain CCUG 39343).
The frozen stock culture was prepared by growing the Candida strain at 34° C. for 48 h on YM-agar. 1-3 colonies from the plates were grown in 6 ml YM-broth at 34° C. for 14 h before freezing in 6% glycerol at −80° C. Each batch of frozen stock culture was then characterized in separate growth experiments using Mueller-Hinton or M19 broth to determine the minimum amount of inoculum giving satisfactory growth after 48 h under the conditions relevant for the MIC assay. This inoculation procedure is used in order to reduce day to day variation in bioassays.
(§3) The micro plates were placed in plastic bags and incubated without shaking at 34° C. The optical density at 600 nm in the microwells was measured after approximately 13, 18, 24 and 34 hours of incubation, and the relative growth yield in each well was calculated based on the growth in the reference groups.

Candida albicans = test: Robotic MIC assay with asthma/COPD medicaments (Example 5); type: cell-based; conditions: Mueller-Hinton broth; for MIC: Candida albicans, 24 h
Description: as §1, §2, §3
The robotic assay described in Example 1 was employed in this Example. […] The concentration utilized for the different components were based on information from Manocha et al. (2006).
In this assay only Mueller-Hinton broth was used since this is the medium specified for standardized MIC assays (Jorgensen et al., 1999).

## OC(Cn1cncn1)(Cn1cncn1)c1ccc(F)cc1F [Fluconazole, fluconazole]
[1]; 0% OligoG
  Minimum Inhibitory Concentration (MIC): 4 µg/mL
[1]; 6% OligoG
  Minimum Inhibitory Concentration (MIC): 4 µg/mL
[1]; 10% OligoG
  Minimum Inhibitory Concentration (MIC): 4 µg/mL
[1]; Pichia kudriavzevii, 2% OligoG, read-out: Minimum Inhibitory Concentration (MIC)
  MIC: 4 µg/mL (≈ 13.1 µM)
[2]; 6% OligoG
  MIC: 2 µg/mL (≈ 6.53 µM)
[2]; 10% OligoG
  MIC: 1 µg/mL (≈ 3.27 µM)
[3]; 0% OligoG
  MIC: 128 µg/mL (≈ 418 µM)
[3]; 2% OligoG
  MIC: 64 µg/mL (≈ 209 µM)
[3]; 6% OligoG
  MIC: 64 µg/mL (≈ 209 µM)
[3]; 10% OligoG
  MIC: 32 µg/mL (≈ 104 µM)
[4]; 0% OligoG
  MIC: 2 µg/mL (≈ 6.53 µM)
[4]; 2% OligoG
  MIC: 2 µg/mL (≈ 6.53 µM)
[4]; 6% OligoG
  MIC: 2 µg/mL (≈ 6.53 µM)
[4]; 10% OligoG
  MIC: 1 µg/mL (≈ 3.27 µM)
[5]; 0% OligoG
  MIC: 4 µg/mL (≈ 13.1 µM)
[5]; 2% OligoG
  MIC: 4 µg/mL (≈ 13.1 µM)
[5]; 6% OligoG
  MIC: 4 µg/mL (≈ 13.1 µM)
[5]; 10% OligoG
  MIC: 2 µg/mL (≈ 6.53 µM)
[6]; 0% OligoG
  MIC: 128 µg/mL (≈ 418 µM)
[6]; 2% OligoG
  MIC: 128 µg/mL (≈ 418 µM)
[6]; 6% OligoG
  MIC: 4 µg/mL (≈ 13.1 µM)
[6]; 10% OligoG
  MIC: 1 µg/mL (≈ 3.27 µM)

## C[C@@H]1[C@H](O)[C@@H](C)/C=C/C=C/C=C/C=C/C=C/C=C/C=C/[C@H](O[C@@H]2O[C@H](C)[C@@H](O)[C@H](N)[C@@H]2O)C[C@@H]2O[C@](O)(C[C@@H](O)C[C@@H](O)[C@H](O)CC[C@@H](O)C[C@@H](O)CC(=O)O[C@H]1C)C[C@H](O)[C@H]2C(=O)O [Amphotericin B, amphotericin B]
[7]; M19, NaCl 0 mM
  MIC: 1.2 µg/mL (≈ 1.3 µM)
[7]; M19, NaCl 10 mM
  MIC: 0.3 µg/mL (≈ 0.325 µM)
[7]; M19, NaCl 30 mM
  MIC: 0.3 µg/mL (≈ 0.325 µM)
[7]; M19, NaCl 50 mM
  MIC: 0.3 µg/mL (≈ 0.325 µM)
[7]; M19, OligoG CF 5/20 0%
  MIC: 1.2 µg/mL (≈ 1.3 µM)
[7]; M19, OligoG CF 5/20 2%
  MIC: 0.3 µg/mL (≈ 0.325 µM)
[7]; M19, OligoG CF 5/20 6%
  MIC: 0.075 µg/mL (≈ 0.0812 µM)
[7]; M19, OligoG CF 5/20 10%
  MIC: 0.0375 µg/mL (≈ 0.0406 µM)
[7]; Mueller-Hinton, NaCl 0 mM
  MIC: 0.15 µg/mL (≈ 0.162 µM)
[7]; Mueller-Hinton, NaCl 10 mM
  MIC: 0.15 µg/mL (≈ 0.162 µM)
[7]; Mueller-Hinton, NaCl 30 mM
  MIC: 0.15 µg/mL (≈ 0.162 µM)
[7]; Mueller-Hinton, NaCl 50 mM
  MIC: 0.15 µg/mL (≈ 0.162 µM)
[7]; Mueller-Hinton, OligoG CF 5/20 0%
  MIC: 0.15 µg/mL (≈ 0.162 µM)
[7]; Mueller-Hinton, OligoG CF 5/20 2%
  MIC: 0.15 µg/mL (≈ 0.162 µM)
[7]; Mueller-Hinton, OligoG CF 5/20 6%
  MIC: 0.0375 µg/mL (≈ 0.0406 µM)
[7]; Mueller-Hinton, OligoG CF 5/20 10%
  MIC: 0.0094 µg/mL (≈ 0.0102 µM)
[7]; M19
  reduction in MIC values: 32 ×
[7]; Mueller-Hinton
  reduction in MIC values: 16 ×
[7]; both media tested (M19, Mueller-Hinton)
  effect of addition of OligoG CF-5/20 on MIC values: reduction in MIC values
Candida albicans; no medicament added, G-block 0%
  MIC: 0.0938 µg/mL (≈ 0.102 µM)
Candida albicans; no medicament added, G-block 2%
  MIC: 0.0938 µg/mL (≈ 0.102 µM)
Candida albicans; no medicament added, G-block 6%
  MIC: 0.0469 µg/mL (≈ 0.0508 µM)
Candida albicans; no medicament added, G-block 10%
  MIC: 0.0234 µg/mL (≈ 0.0253 µM)
Candida albicans; with Budesonide 0.01 mM, G-block 0%
  MIC: 0.0938 µg/mL (≈ 0.102 µM)
Candida albicans; with Budesonide 0.01 mM, G-block 2%
  MIC: 0.0938 µg/mL (≈ 0.102 µM)
Candida albicans; with Budesonide 0.01 mM, G-block 6%
  MIC: 0.0469 µg/mL (≈ 0.0508 µM)
Candida albicans; with Budesonide 0.01 mM, G-block 10%
  MIC: 0.0469 µg/mL (≈ 0.0508 µM)
Candida albicans; with Formoterol 0.5 mM (2% DMSO), G-block 0%
  MIC: 0.0469 µg/mL (≈ 0.0508 µM)
Candida albicans; with Formoterol 0.5 mM (2% DMSO), G-block 2%
  MIC: 0.0469 µg/mL (≈ 0.0508 µM)
Candida albicans; with Formoterol 0.5 mM (2% DMSO), G-block 6%
  MIC: 0.0234 µg/mL (≈ 0.0253 µM)
Candida albicans; with Formoterol 0.5 mM (2% DMSO), G-block 10%
  MIC: 0.0117 µg/mL (≈ 0.0127 µM)
Candida albicans; with Ipratropium bromide 0.01 mM, G-block 0%
  MIC: 0.0938 µg/mL (≈ 0.102 µM)
Candida albicans; with Ipratropium bromide 0.01 mM, G-block 2%
  MIC: 0.0469 µg/mL (≈ 0.0508 µM)
Candida albicans; with Ipratropium bromide 0.01 mM, G-block 6%
  MIC: 0.0234 µg/mL (≈ 0.0253 µM)
Candida albicans; with Ipratropium bromide 0.01 mM, G-block 10%
  MIC: 0.0117 µg/mL (≈ 0.0127 µM)
Candida albicans; with Ipratropium bromide 1 mM, G-block 0%
  MIC: 0.188 µg/mL (≈ 0.203 µM)
Candida albicans; with Ipratropium bromide 1 mM, G-block 2%
  MIC: 0.0938 µg/mL (≈ 0.102 µM)
Candida albicans; with Ipratropium bromide 1 mM, G-block 6%
  MIC: 0.0469 µg/mL (≈ 0.0508 µM)
Candida albicans; with Ipratropium bromide 1 mM, G-block 10%
  MIC: 0.0234 µg/mL (≈ 0.0253 µM)
Candida albicans; with Salbutamol 0.01 mM, G-block 0%
  MIC: 0.0469 µg/mL (≈ 0.0508 µM)
Candida albicans; with Salbutamol 0.01 mM, G-block 2%
  MIC: 0.0469 µg/mL (≈ 0.0508 µM)
Candida albicans; with Salbutamol 0.01 mM, G-block 6%
  MIC: 0.0234 µg/mL (≈ 0.0253 µM)
Candida albicans; with Salbutamol 0.01 mM, G-block 10%
  MIC: 0.0117 µg/mL (≈ 0.0127 µM)
Candida albicans; with Salbutamol 1 mM, G-block 0%
  MIC: 0.0469 µg/mL (≈ 0.0508 µM)
Candida albicans; with Salbutamol 1 mM, G-block 2%
  MIC: 0.0469 µg/mL (≈ 0.0508 µM)
Candida albicans; with Salbutamol 1 mM, G-block 6%
  MIC: 0.0234 µg/mL (≈ 0.0253 µM)
Candida albicans; with Salbutamol 1 mM, G-block 10%
  MIC: 0.0117 µg/mL (≈ 0.0127 µM)
Candida albicans; addition of 10% OligoG CF-5/20 compared to without OligoG CF-5/20
  reduction in MIC values: 4 ×
